Experiment [1] in a line: Inhibition of HCV genotype 1a replicons NS5A infected in human Huh7 cells by luciferase reporter gene assay. In general terms: A replicon is a self-replicating genome or part of one, used to study replication in cells.
The nature of experiment [2]: Inhibition of HCV genotype 1b replicons NS5A infected in human Huh7 cells by luciferase reporter gene assay.
Experiment [3] in a line: Inhibition of HCV genotype 3a replicons NS5A infected in human Huh7 cells by luciferase reporter gene assay.
Experiment [4] can be described thus: Inhibition of HCV genotype 1a replicon NS5A S2204I mutant infected in human Huh7 cells.
Experiment [5] in a line: Inhibition of HCV genotype 1b replicon NS5A S2204I mutant infected in human Huh7 cells.
The nature of experiment [6]: Inhibition of HCV genotype 3a replicon NS5A.

Our source for the EC50 values is BindingDB's records for doi:10.1016/j.bmcl.2016.07.066 (Presidio Pharmaceuticals, 2016).

Regarding `COC(=O)N[C@H](NC(=O)N1CCC[C@H]1c1nc2ccc(-c3ccc4cc(-c5cnc([C@@H]6CCCN6C(=O)[C@@H](NC(=O)OC)C(C)C)[nH]5)ccc4c3)cc2[nH]1)C1CCOCC1`, the results for the EC50 in experiment [1], in experiment [2] and in experiment [3] were 0.05 nM, 0.023 nM and 0.86 nM, respectively.
For `COC(=O)N[C@H](NC(=O)N1CCC[C@H]1c1nc2ccc(-c3ccc4cc(-c5cnc([C@@H]6CCCN6C(=O)[C@H](NC(=O)OC)c6ccccc6)[nH]5)ccc4c3)cc2[nH]1)C(C)C`, the EC50 (usually the midpoint of the concentration-response curve) in experiment [1] is 0.22 nM; in experiment [2] it was 0.014 nM; in experiment [3], 0.03 nM.
For `COC(=O)N[C@H](NC(=O)N1CCC[C@H]1c1nc2cnc(-c3ccc4cc(-c5cnc([C@@H]6CCCN6C(=O)[C@@H](NC(=O)OC)C(C)C)[nH]5)ccc4c3)cc2[nH]1)C(C)C` the same measures were 1.2 nM, 0.052 nM and 15 nM.
For `COC(=O)N[C@H](NC(=O)N1CCC[C@H]1c1nc2ccc(-c3ccc4cc(-c5cnc([C@@H]6CCCN6C(=O)[C@@H](NC(=O)OC)C(C)C)[nH]5)ccc4c3)nc2[nH]1)C(C)C` the same measures were 0.08 nM, 0.025 nM and 2.1 nM.
For `COC(=O)N[C@H](NC(=O)N1CCC[C@H]1c1nc2ccc(-c3ccc4cc(-c5cnc([C@@H]6CCCN6C(=O)[C@@H](NC(=O)OC)[C@@H](C)OC)[nH]5)ccc4c3)cc2[nH]1)[C@@H](C)OC` the same measures were 0.13 nM, 0.047 nM and 1.5 nM.
As for `CC[C@H](C)[C@H](NC(=O)OC)NC(=O)N1CCC[C@H]1c1nc2ccc(-c3ccc4cc(-c5cnc([C@@H]6CCCN6C(=O)[C@@H](NC(=O)OC)[C@@H](C)CC)[nH]5)ccc4c3)cc2[nH]1`, the values for the 50% effective concentration (EC50) in experiment [1], in experiment [2] and in experiment [3] were 0.11 nM, 0.015 nM and 2.3 nM, respectively.
For `COC(=O)N[C@@H](NC(=O)N1CCC[C@H]1c1nc2ccc(-c3ccc4cc(-c5cnc([C@@H]6CCCN6C(=O)[C@@H](NC(=O)OC)C(C)C)[nH]5)ccc4c3)cc2[nH]1)c1ccccc1` the same measures were 0.11 nM, 0.011 nM and 0.06 nM.
For `COC(=O)N[C@H](NC(=O)N1CCC[C@H]1c1nc2ccc(-c3ccc4cc(-c5cnc([C@@H]6CCCN6C(=O)[C@@H](NC(=O)OC)[C@@H](C)OC)[nH]5)ccc4c3)cc2[nH]1)C(C)C` the same measures were 0.1 nM, 0.022 nM and 1.6 nM.
For `COC(=O)N[C@H](NC(=O)N1CCC[C@H]1c1nc2ccc(-c3ccc4cc(-c5cnc([C@@H]6CCCN6C(=O)[C@@H](NC(=O)OC)C6CCCC6)[nH]5)ccc4c3)cc2[nH]1)C1CCCC1` the same measures were 0.05 nM, 0.003 nM and 2.4 nM.
On to `COC(=O)N[C@H](NC(=O)N1CCC[C@H]1c1nc2ncc(-c3ccc4cc(-c5cnc([C@@H]6CCCN6C(=O)[C@@H](NC(=O)OC)C(C)C)[nH]5)ccc4c3)cc2[nH]1)C(C)C`, for which the EC50 in experiment [1] came to 0.23 nM; in experiment [2], 0.026 nM; in experiment [3], 6.6 nM.
As for `COC(=O)N[C@H](NC(=O)N1CCC[C@H]1c1ncc(-c2ccc(-c3ccc(-c4cnc([C@@H]5CCCN5C(=O)[C@@H](NC(=O)OC)C(C)C)[nH]4)cc3)cc2)[nH]1)C(C)C`, the EC50 came out at 0.14 nM in experiment [1]; 0.073 nM in experiment [2]; 0.67 nM in experiment [3]; 0.05 nM in experiment [4]; 0.009 nM in experiment [5]; 0.146 nM in experiment [6].
Regarding `CC[C@@H](C)[C@H](NC(=O)OC)NC(=O)N1CCC[C@H]1c1nc2ccc(-c3ccc4cc(-c5cnc([C@@H]6CCCN6C(=O)[C@@H](NC(=O)OC)[C@H](C)CC)[nH]5)ccc4c3)cc2[nH]1`, the EC50 was found to be 0.6 nM in experiment [1], 0.009 nM in experiment [2] and 9.5 nM in experiment [3].
In the case of `CC[C@H](C)[C@H](NC(=O)OC)NC(=O)N1CCC[C@H]1c1nc2ccc(-c3ccc4cc(-c5cnc([C@@H]6CCCN6C(=O)[C@@H](NC(=O)OC)[C@@H](C)OC)[nH]5)ccc4c3)cc2[nH]1`, the figures for the EC50 in experiment [1], in experiment [2] and in experiment [3] were 0.07 nM, 0.015 nM and 1 nM, respectively.
For `COC(=O)N[C@H](NC(=O)N1CCC[C@H]1c1nc2ccc(-c3ccc4cc(-c5cnc([C@@H]6CCCN6C(=O)[C@@H](NC(=O)OC)C(C)C)[nH]5)ccc4n3)cc2[nH]1)C(C)C` the same measures were 0.26 nM, 0.042 nM and 1.1 nM.
For `COC(=O)N[C@H](NC(=O)N1CCC[C@H]1c1nc2ccc(-c3ccc4cc(-c5cnc([C@@H]6CCCN6C(=O)[C@@H](NC(=O)OC)C6CCOCC6)[nH]5)ccc4c3)cc2[nH]1)C(C)C` the same measures were 0.08 nM, 0.03 nM and 0.89 nM.
For `COC(=O)N[C@H](NC(=O)N1CCC[C@H]1c1nc2ccc(-c3ccc4cc(-c5cnc([C@@H]6CCCN6C(=O)[C@@H](NC(=O)OC)C6CCOCC6)[nH]5)ccc4c3)cc2[nH]1)C1CCOCC1` the same measures were 0.13 nM, 0.113 nM and 1.1 nM.
